Results as given in patent US20110150980A1, “CGRP ANALOG” (VasoGenix Pharmaceuticals, Inc., priority 2009, published 2011).
Like-named read-outs stand apart in the source and are kept apart here. Blank lines part the entries; values can stand above or below the substance they belong to. Bridges are numbered along the chain shown (N, C = ends). Where no end group is shown, it is not given here.

Key:
[1] = system: sedated Non Human Primate; test: IV infusion in the sedated Non Human Primate: blood pressure and heart rate (Example 1); type: in vivo
[2] = target: T1, CRLR/RAMP1 receptor (Homo sapiens, UniProt O60894+Q16602); test: CRE-luciferase assay in HEK293T cells transfected with CRLR and RAMP1; type: cell-based; conditions: for activity and potency in binding to the CGRP receptor, CRE-Luciferase assay: compared to h-α-CGRP and h-β-CGRP as controls
T1 construct: All of the full-length cDNAs were subcloned into pcDNA3.1 expression vectors; expressed in transfected cells; host or cells: HEK293T, transient calcium phosphate transfection, pcDNA3.1 vectors
Description: The expression vectors for RAMP1, RAMP2, RAMP3, CRLR, CRE-Luc and SRE-Luc were constructed as previously described (McLatchie L. M., et al. (1998) Nature 393:333-339). Human CRLR, RAMP1, and RAMP2 full-length cDNAs were cloned by RT-PCR using RNA obtained from HEK293T cells and CRLR, RAMP1, and RAMP2-specific primers. Human RAMP3 full-length cDNAs were cloned by RT-PCR using RNA from human kidney and RAMP3 specific primers. All of the full-length cDNAs were subcloned into pcDNA3.1 expression vectors.
Human embryonic kidney 293T cells (HEK293T) were maintained in Dulbecco's modified Eagle's medium supplemented with 10% fetal calf serum, 2 mM glutamine, […], at 37° C. in a humidified atmosphere of 95% air and 5% CO2. Transient transfections were performed using calcium phosphate co-precipitation (Mellon P. L., et al. (1981) Cell 27:279-288). Cells in six-well plates or 100-mm Petri dishes were grown to 70% confluence and transfected with 0.1 μg of DNA for CRLR, 0.05 μg for RAMPs or 1 μg for CRE-Luc and SRE-Luc per cm^2. The total amount of DNA transfected in each condition was kept constant by adding empty pcDNA3.1 vector when needed. Twenty hours after transfection, the medium was replaced with fresh medium containing 5 mM sodium butyrate for 24 h and then replaced for an additional 24 h with fresh medium without sodium butyrate. All of the experiments were performed 72 h after transfection to allow correct glycosylation and cell surface targeting of CRLR and RAMPs.
After exposure to various concentrations of CGRP or the CGRP analogs, the cells were lysed and assayed for CRE- or SRE-luciferase activity using the luciferase assay system (Promega), and luminescence was measured using a 96-well luminometer.
The mechanism of action for CGRP at the CRLR/RAMP1 receptor is known to up-regulate cAMP through the gs pathway, and to a lesser extent [Ca^2+] through the gq pathway. […] It is the cAMP pathway that is the primary mechanism of action of CGRP for vasodilation, cardio/renoprotection and immunomodulation.

[3] = system: non-sedated, non-naïve cynomolgus monkeys; test: Intravenous infusion in non-sedated, telemeterized non-human primates: blood pressure, heart rate, ECG (Example 2); type: in vivo
Experimental: Peptides were synthesized as in Example 1. […] Two non-naïve, telemeterized, male non-human primates (NHP “a” and “b”) were used for the test article(s) dosing regimen. […] Following a stabilized baseline period of approximately 30 minutes, one of the test article(s) was administered as an intravenous infusion via a femoral vein vascular access port (VAP) using a Pegasus PCA infusion pump for a period of 30 or 60 minutes. A minimum period of 30 minutes was allotted for the hemodynamic parameters to return to baseline prior to the next test article infusion dose. The process was repeated for each of the stated test articles. The same procedure was followed for the 1 hour infusion with 1 hour allotted for parameters to return to base line.
The non-human primates were previously surgically prepared with telemetry transducers, type TL11M2-D70-PCT (Data Sciences International). The acquisition and analysis was done using a Ponemah (Version 4.8 or higher) data acquisition and analysis system installed on the hard drive of a computer. The computer was equipped with disk drive for file back up on readable write-once only optical media (CD-R or DVD-R).
Prior to the first dose administration, baseline data was acquired. For each subsequent dose, data was collected for approximately 30 min postdose. Prior to the next dose, the hemodynamic parameters were allowed to return to a stable baseline±10%.
Systolic blood pressure (SYS or SBP), diastolic blood pressure (DBP), mean arterial pressure (MAP), heart rate (HR), and all lead II ECG variables were recorded. The telemetry data files were transferred to an Excel (MicroSoft® Version 2003) spreadsheet. The following variables from the lead II ECG were measured: PR interval, QRS duration, QT interval, RR interval, and QTcF interval (calculated as
A visual inspection of the entire collected ECG waveform for disturbances in rhythm and waveform morphology was performed. The data for selected time points were analyzed and assessed on completion of data acquisition and were the average of at least 30 beats (ABP and ECG) of data at the selected analysis time, when possible. The time points for both hemodynamic and ECG data analysis were an initial 30 min baseline prior to the first dose, at a 10 min during each infusion postdose interval relative to end of each infusion, and time points prior to the next test article infusion for each test compound.
Non-human primates were selected because they have the same RAMP 1-CGRP receptor complex as humans.

[4] = system: patients; conditions: cited from earlier work
[5] = NHP a, dose day 2, during 30 minute infusions of 0.024 ug/kg/min
[6] = NHP a, dose day 3, during 30 minute infusions of 0.024 ug/kg/min
[7] = NHP a, dose day 3, during 1 hour infusion of 0.024 ug/kg/min
[8] = NHP b, dose day 2, during 30 minute infusions of 0.024 ug/kg/min
[9] = NHP b, dose day 3, during 30 minute infusions of 0.024 ug/kg/min
[10] = NHP b, dose day 3, during 1 hour infusion of 0.024 ug/kg/min
[11] = average of a 2, b 2, a 3, b 3, during 30 minute infusions of 0.024 ug/kg/min
[12] = average of a3, b3, during 1 hour infusion of 0.024 ug/kg/min
[13] = Anand et al.: short-term IV infusions (10 or 20 minutes) at 0.8, 3.2, or 16 ng/kg/min
[14] = Sekhar et al.: 8 ng/kg/min by IV infusion for 8 hours
[15] = Stephenson et al.: 600 ng/min, 2-8 hour infusions for two consecutive days

T1 sequence (Q16602 23-461): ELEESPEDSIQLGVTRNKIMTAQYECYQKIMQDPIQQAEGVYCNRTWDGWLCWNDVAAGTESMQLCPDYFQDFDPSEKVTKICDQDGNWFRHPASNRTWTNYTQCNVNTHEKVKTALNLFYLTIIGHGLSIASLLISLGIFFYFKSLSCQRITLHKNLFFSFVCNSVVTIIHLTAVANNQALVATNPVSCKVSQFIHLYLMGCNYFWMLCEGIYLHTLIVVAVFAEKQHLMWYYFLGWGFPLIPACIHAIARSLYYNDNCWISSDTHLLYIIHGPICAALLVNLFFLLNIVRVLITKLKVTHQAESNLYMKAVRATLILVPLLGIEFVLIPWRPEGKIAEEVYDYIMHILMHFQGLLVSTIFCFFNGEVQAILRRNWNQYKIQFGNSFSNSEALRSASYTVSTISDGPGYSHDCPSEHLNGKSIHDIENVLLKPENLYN
T1 sequence (O60894 27-148): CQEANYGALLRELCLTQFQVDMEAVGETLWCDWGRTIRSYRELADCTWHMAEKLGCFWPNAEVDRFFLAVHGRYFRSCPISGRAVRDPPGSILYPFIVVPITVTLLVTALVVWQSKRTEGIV

potency in CRE-Luciferase assay ([2]; at a concentration of 10^−10 molar): more potent
Substance: Cyc-ACDTATCVTHRLADLLSRSGGVVKSNFVPTNVGSKAF-NH2 (disulfide 2-7 (inferred)) [Peptide IX]
Heart rate (HR) effect ([1]; at the 28 ng dose): increased heart rate but less than CGRP
activity and potency in binding to the CGRP receptor, CRE-Luciferase assay [2]: as equally active and potent as h-α-CGRP and h-β-CGRP

Substance: Cyc-ACNTATCVTHRLAGLLSRSGGVVKSNFVPTNVGSKAF-NH2 (disulfide 2-7 (inferred)) [Peptide V]
Percent change in HR, a 2 [3, 5]: −19.8%
Percent change in mean BP, a 2 [3, 5]: −20.0%
Percent change in systolic BP, a 2 [3, 5]: −16.2%
Percent change in HR, a 3 [3, 6]: −22.2%
Percent change in mean BP, a 3 [3, 6]: −8.8%
Percent change in systolic BP, a 3 [3, 6]: −6.8%
Percent change in HR at 30 minutes, a3 [3, 7]: −22.2%
Percent change in HR at 60 minutes, a3 1 hr [3, 7]: −5.8%
Percent change in mean systolic BP at 30 minutes, a3 [3, 7]: −8.8%
Percent change in mean systolic BP at 60 minutes, a3 1 hr [3, 7]: −5.3%
Percent change in systolic BP at 30 minutes, a3 [3, 7]: −6.8%
Percent change in systolic BP at 60 minutes, a3 1 hr [3, 7]: −5.8%
Percent change in HR, b 2 [3, 8]: −13.1%
Percent change in mean BP, b 2 [3, 8]: −28.6%
Percent change in systolic BP, b 2 [3, 8]: −27.2%
Percent change in HR, b 3 [3, 9]: −37.3%
Percent change in mean BP, b 3 [3, 9]: −26.4%
Percent change in systolic BP, b 3 [3, 9]: −23.9%
Percent change in HR at 30 minutes, b3 [3, 10]: −37.3%
Percent change in HR at 60 minutes, b3 1 hr [3, 10]: 14.5%
Percent change in mean systolic BP at 30 minutes, b3 [3, 10]: −26.4%
Percent change in mean systolic BP at 60 minutes, b3 1 hr [3, 10]: 2.4%
Percent change in systolic BP at 30 minutes, b3 [3, 10]: −23.9%
Percent change in systolic BP at 60 minutes, b3 1 hr [3, 10]: 2.8%
Percent change in mean HR, a 2 ([3]; Table 14, NHP a, dose day 2, during 30 minute infusions of 0.024 ug/kg/min): −19.8%
Percent change in mean HR, a 3 ([3]; Table 14, NHP a, dose day 3, during 30 minute infusions of 0.024 ug/kg/min): −22.2%
Percent change in mean HR, b 2 ([3]; Table 14, NHP b, dose day 2, during 30 minute infusions of 0.024 ug/kg/min): −13.1%
Percent change in mean HR, b 3 ([3]; Table 14, NHP b, dose day 3, during 30 minute infusions of 0.024 ug/kg/min): −37.3%
Percent change in mean HR, HR ([3]; Table 14, average of a 2, b 2, a 3, b 3, during 30 minute infusions of 0.024 ug/kg/min): −23.1%
Percent change in mean HR at 30 minutes, a3 ([3]; Table 24, NHP a, dose day 3, during 1 hour infusion of 0.024 ug/kg/min): −22.2%
Percent change in mean HR at 30 minutes, b3 ([3]; Table 24, NHP b, dose day 3, during 1 hour infusion of 0.024 ug/kg/min): −37.3%
Percent change in mean HR at 30 minutes, HR T30 ([3]; Table 24, average of a3, b3, during 1 hour infusion of 0.024 ug/kg/min): −29.8%
Percent change in mean HR at 60 minutes, a3 1 hr ([3]; Table 25, NHP a, dose day 3, during 1 hour infusion of 0.024 ug/kg/min): −5.8%
Percent change in mean HR at 60 minutes, b3 1 hr ([3]; Table 25, NHP b, dose day 3, during 1 hour infusion of 0.024 ug/kg/min): 14.5%
Percent change in mean HR at 60 minutes, HR T60 ([3]; Table 25, average of a3, b3, during 1 hour infusion of 0.024 ug/kg/min): 4.4%
Percent change in HR, HR [3, 11]: −23.1%
Percent change in mean BP, BP [3, 11]: −21.0%
Percent change in systolic BP, BP [3, 11]: −18.5%
Percent change in HR at 30 minutes, HR T30 [3, 12]: −29.8%
Percent change in HR at 60 minutes, HR T60 [3, 12]: 4.4%
Percent change in mean systolic BP at 30 minutes, BP T30 [3, 12]: −17.6%
Percent change in mean systolic BP at 60 minutes, BP T60 [3, 12]: −1.5%
Percent change in systolic BP at 30 minutes, T30 [3, 12]: −15.4%
Percent change in systolic BP at 60 minutes, T60 [3, 12]: −1.5%
reduction of BP and HR (Tables 8, 13 and 14, FIG. 11) ([3]; mean BP and HR, 30 minute infusions, 0.024 ug/kg/min): reduced both BP and HR to a greater extent than the positive control αCGRP
effect on heart rate ([3]; non-sedated cynomolgus monkeys, IV infusion): maintenance of pre-administration heart rate, and in some cases, reduction in heart rate
reduction of BP and HR (Tables 8-10, FIG. 10) ([3]; systolic BP and HR, 30 minute infusions, 0.024 ug/kg/min): reduced BP and HR to a greater extent than αCGRP and βCGRP
Heart rate effect ([1]; at any of the tested doses): no increase in heart rate
increase in heart rate (HR) compared to the control CGRP ([1]; sedated Non Human Primate, IV for 5 minutes at 29/ng/kg/min): reduced increase in heart rate
activity and potency in binding to the CGRP receptor, CRE-Luciferase assay [2]: as equally active and potent as h-α-CGRP and h-β-CGRP

Substance: CGRP
hemodynamic effects [4, 13]: beneficial hemodynamic effects such as decreased systemic vascular resistance and increase in cardiac output
tachycardia [4, 13]: no tachycardia observed
renal blood flow and glomerular filtration ([4]; Sekhar et al.: 8 ng/kg/min by IV infusion for 8 hours, during treatment): increased
hemodynamic effects [4, 14]: beneficial hemodynamic effects such as decreased pulmonary and systemic arterial pressure, decreased vascular resistance and increased cardiac output
time after stopping infusion within which hemodynamic effects were lost [4, 14]: ≤ 30 min
side effects of pulsed therapy [4, 15]: unfavorable side effects of tachycardia and neurohumoral response were also observed
tolerability and hemodynamic functions, pulsed therapy [4, 15]: well tolerated and was observed to improve hemodynamic functions such as left ventricular function
tolerability of continuous infusion therapy ([4]; Stephenson et al.: 600 ng/min, 48-hour continuous IV-infusion): infusion was discontinued after 28 hours in 3 out of the 6 patients due to nausea, diarrhea, and/or severe facial flushing
